The values below come from US10598667B2, “Functional illumination in living cells” (The Regents of the University of California, priority 2013, dated 2020).

“Also recorded” adds a separate entry of the source. Bridges are numbered along the chain shown (N, C = ends). Where no end group is shown, it is not given here. [ ]: non-standard residue; d: D form. pY = N[C@@H](Cc1ccc(OP(=O)(O)O)cc1)C(=O)O

Assay [1] can be described thus: Sequential screening of PDMS affixed OBOC bead array with three dyes. The assay is classed as binding. To be noted: 100 μM dye in PBS, three dyes incubated sequentially on the same bead array. As to the method:
Silicon Elastomer Base was mixed completely with Silicone Elastomer Curing Agent at ratio 10:1 in volume and the solution was kept in vacuum container for 15 to 20 minutes to eliminate the gas bubbles formed during the mixing process. After the removal of all residual bubbles, approximately 0.5-1 mL of PDMS solution was added into the bottom of a 60 mm culture dish. The dish was then spun on a single wafer spin processor (Laurell Technologies Corporation®, model WS-6505-6NPP/Lite) to evenly distribute the solution over the plates, at a speed of 4000 rpm for 30 s. A 5 μm layer of PDMS was formed on the bottom of dish and was cured at 80° C. for 5 min or at room temperature for 24 hrs to allow for beads immobilization. Knowing that the PDMS coating was about 5 μm thick and the radius of bead was around 45 μm, the percentage of free bead surface area was estimated by the formula of [1-2πrh/4πr^2]×100% (h=thickness of PDMS layer; r=radius of bead) to be approximately 95%. The library beads resuspended in 70% ethanol solution were first randomly placed on the surface of a glass plate that was 10% smaller than the dish used in the experiment. After the ethanol evaporated, a syringe needle was used to adjust the dry beads to evenly redistribute beads on the glass surface. Then the dish was inverted and the PDMS layer was pressed down onto the glass plate with beads. The library beads were embedded partly inside the PDMS layer.
Dye solutions were prepared in PBS to a 100 μM final concentration and 5 mL of each dye solution were added into the 60 mm dish with beads. Three dyes were tested sequentially. The dish was kept swirling at 60 rpm on the rotator. The dye binding was monitored for 90 minutes, and then the dye solution was removed from the dishes and PBS was added to rinse the beads on the bottom to remove the color dye. The PBS solution was changed every 30 min and the dish was always swirled as above. The beads color change was also observed and recorded at certain time interval during the whole wash process to collect data of color dissociation. Before adding the next dye solution, beads were washed with 70% ethanol to completely remove residual dye and were rinsed with PBS solution three times afterwards.
A representative positive bead for each color was selected for the color binding and dissociation study. A series of images were taken at different time points during the binding and washing process. From the images taken, regions of interest (ROI) with the same size were picked up from the color beads and colorless control beads. The value from the control bead was subtracted from the color bead to get quantitated color value for each single color bead. The measure of the color intensity for each color dye was performed using the Kodak Image Station 2000MM.
The PDMS affixed bead array was incubated with three different dyes sequentially. […] Eleven beads were selected for further analysis based on their characteristic binding profiles (FIG. 2). […] The amino acid sequences of the peptides bound to the beads were determined (Table 1).

Assay [2] can be described thus: MG binding of peptide ligands from screening and their derivatives. Details: key to MG binding: −: no binding; +: weak binding; ++: mild binding; +++: strong binding; ++++: very strong binding. To be noted: for MG binding: 11 hour incubation with 5 μM MG in PBS buffer (pH 7.4); for MG binding of phosphorylated form (in words): phosphorylated but not unphosphorylated form.

Assay [3] in a line: Abltide motif OBOC library screening with MG before and after dephosphorylation. The following applies: for Post-dephos fluorescent signal: after dephosphorylation (treatment with 50% HF); for Pre-dephos fluorescent signal: before dephosphorylation; for ΔF/F: pre- vs post-dephosphorylation. The assay is classed as binding. The text has this: Screening for Library category 2 (Table 2) necessitates that the entire OBOC bead library array be scanned with and without MG or other dyes, before and after PTM. Here, we will use c-src PTK as an example. We have previously reported the use of OBOC combichem and radiosubstrate screening method to identify an efficient and specific peptide substrate (YIYGSFK; SEQ ID NO:35) for c-src PTK. […] Recently, we prepared YIY(P)GSFKKKXn (SEQ ID NO:216) libraries (X=all 19 L-amino acids except Cys, n=6-9) and screened them against MG. After 1 hr incubation, near-infra-red image of the entire immobilized library was captured. The bead library was then thoroughly washed, and dephosphorylated with 50% HF. Beads that strongly fluoresce near infra-red before dephosphorylation but fluoresce weakly (or none) after dephosphorylation were selected as candidate GESIs for c-src PTK (Table 6). Of these 8 peptides isolated from screening ˜300,000 beads, 3 has 1 Trp, and the remaining 5 have no Trp. Work is currently underway to characterize their substrate efficiency and specificity biochemically in a cell-free system and subsequently inside living cells. In principle, using various dyes and PKs to screen OBOC libraries, we should be able to develop several GESIs against several PKs that can be multiplexed with different dyes in living cells. We have developed GESIs for one serine/threonine kinase (PKA), and two tyrosine kinases (c-src and bcr-abl). Very recently, we have designed another library with a c-abl motif (“Abltide”): EAIY(P)AAPFAKKXn (SEQ ID NO:217).
After screening about one million beads with MG, we identified four peptides that greatly activate MG in phosphorylated but not dephosphorylated form (Table 7). Photomicrograph of LLT4bead is shown in FIG. 21, with a marked decrease in fluorescent signal (relative arbitrary level of 1930 to 93 and a ΔF/F value of 19; see right columns of Table 7) after dephosphorylation (treatment with 50% HF). High consensus was observed. All 4 beads have a Tyr at X7, a negative-charged amino acid at X4, hydrophobic amino acids at X1, X6 and X8 (3 out 4 have Val at X6 and Tyr at X8). Three out four beads have a positive-charged amino acid at X2 position. To discover GESIs for PKA, we will include the known PKA substrate motif (RRX[S/T]; SEQ ID NO:223) into the OBOC libraries. In some libraries, the known kinase substrate motifs will be placed between two stretches of random residues. In some cases, we have found increased (instead of decrease) fluorescence after dephosphorylation. These peptides are potential leads for developing phosphatase sensors.

For the substance “CGNTEPC (synthetic genetically encoded small illuminant (GESI) peptide of bead #6)”, the Dye binding entry in assay [1] (listed as # 6) is “Malachite green”; in assay [1] (listed as #6), “only bind to malachite green; also recorded: bind only to malachite green”.
Take “CYKWWVC (synthetic genetically encoded small illuminant (GESI) peptide of bead #7)”: the Dye binding result in assay [1] (listed as #7) was “bind to both indigo carmine and bromocresol purple”.
On to “CHPLLPC (not fully specified (bridges); cysteine pairing not given here; also: bead-bound) [Bead #5]”, for which the figures for the Dye binding result in assay [1] (listed as # 5) and in assay [1] (listed as #5) were “Bromocresol” and “only bind to bromocresol purple; also recorded: bind only to bromocresol purple”, respectively.
Turning to “3C (CDNYI[pY]GSFKNPWEWC; disulfide 1-16 (inferred)) [Peptide 3C]”, the MG binding result in assay [2] is recorded as “++++”.
The same measure, in the same setting: with “DRDGDGDHRKIE (synthetic genetically encoded small illuminant (GESI) malachite green (MG) binding Peptide 3)” the entry was “+++”; with “4C (CDVYI[pY]GSFKYWPAC; disulfide 1-15 (inferred)) [Peptide 4C]”, “++++”.
On to “CMTQEAC (synthetic genetically encoded small illuminant (GESI) peptide of bead #8)”, for which the Dye binding entry is “Malachite green” in assay [1] (listed as # 8) and “only bind to malachite green; also recorded: bind only to malachite green” in assay [1] (listed as #8).
Regarding “2C (CDVYI[pY]GSFKNDYIC; disulfide 1-15 (inferred)) [Peptide 2C]”, in assay [2], the MG binding entry is on record as “++++”.
Regarding “DILDDGDEIQGE (synthetic genetically encoded small illuminant (GESI) malachite green (MG) binding Peptide 1)”, in assay [2], the MG binding result is recorded as “+” and the “MG binding of phosphorylated form (in words)” value (shortened to “MG binding … (in words)”) is reported as “bound MG”.
Consider “EAIY(P)AAPFAKKYYVSERKW (EAI[pY]AAPFAKKYYVSERKW) [LLT3]”, for which, in assay [3], the Post-dephos fluorescent signal is listed as 63 relative arbitrary level, the Pre-dephos fluorescent signal is given as 835 relative arbitrary level and the ΔF/F was 12.
In assay [3], “EAIY(P)AAPFAKKYYVYDMHI (EAI[pY]AAPFAKKYYVYDMHI) [LLT1]” had a Post-dephos fluorescent signal of 72 relative arbitrary level, a Pre-dephos fluorescent signal of 939 relative arbitrary level and a ΔF/F of 12.
The matching figures for “EAIY(P)AAPFAKKLYIMDGWF (EAI[pY]AAPFAKKLYIMDGWF) [LLT4]”: 93 relative arbitrary level, 1930 relative arbitrary level and 19.
Turning to “CEIHRIC (synthetic genetically encoded small illuminant (GESI) peptide of bead #9)”, the Dye binding entry was “Bromocresol” in assay [1] (listed as # 9) and “only bind to bromocresol purple; also recorded: bind only to bromocresol purple” in assay [1] (listed as #9).
“DFMRQGVYDIPE (synthetic genetically encoded small illuminant (GESI) malachite green (MG) binding Peptide 5)”: in assay [2], the MG binding result is reported as “++” and the “MG binding … (in words)” value was “bound MG”.
As to “EAIY(P)AAPFAKKYYVQDSRA (EAI[pY]AAPFAKKYYVQDSRA) [LLT2]”, in assay [3], the Post-dephos fluorescent signal was 44 relative arbitrary level, the Pre-dephos fluorescent signal was 575 relative arbitrary level and the ΔF/F turned out to be 12.
“CLMNKWC (not fully specified (bridges); cysteine pairing not given here; also: bead-bound) [Bead #2]”: the Dye binding entry in assay [1] (listed as #2) is “bind to both indigo carmine and bromocresol purple”.
With “5C (CDTYI[pY]GSFKVNPDC; disulfide 1-15 (inferred)) [Peptide 5C]”, in assay [2], the MG binding result is “+++”.
“CQPDLTC (not fully specified (bridges); cysteine pairing not given here; also: bead-bound) [Bead #3]”: the Dye binding entry in assay [1] (listed as # 3) is on record as “Malachite green”; in assay [1] (listed as #3), “only bind to malachite green; also recorded: bind only to malachite green”.
As to “1C (CDDYI[pY]GSFKPYIAC; disulfide 1-15 (inferred)) [Peptide 1C]”, the MG binding result in assay [2] was “++++”.
Consider “DSDSWGEYFHEE (synthetic genetically encoded small illuminant (GESI) malachite green (MG) binding Peptide 4)”, for which, in assay [2], the MG binding entry was “++” and the “MG binding … (in words)” value is “bound MG”.
Consider “CLSDEFC (not fully specified (bridges); cysteine pairing not given here; also: bead-bound) [Bead #11]”, for which the Dye binding entry is recorded as “Malachite green” in assay [1] (listed as # 11) and “only bind to malachite green; also recorded: bind only to malachite green” in assay [1] (listed as #11).
As to “3-P (DNYIYGSFKPWEWC; synthetic genetically encoded small illuminant (GESI) malachite green (MG) binding peptide 3-P from linear library L-1)”, the MG binding result in assay [2] is given as “++”.
